The source of these data is PubChem BioAssay (NCI).

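Briefly, cells in 96-well plates were exposed to five compound concentrations for 48 h, and endpoints were estimated by linear interpolation. GI50 = concentration required for 50% inhibition of growth. TGI: total growth inhibition.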 Some results are limits rather than exact numbers.

Test systems include OVCAR-5 ovarian; OVCAR-4 ovarian; K-562 leukemia; HCT-15 colon; LOX IMVI melanoma; A498 renal; MOLT-4 leukemia; SK-MEL-5 melanoma; DU-145 prostate; MCF7 breast.
Test in all cases: inhibition of tumour cell growth, NCI panel, 48 h

For the compound `O=S(=O)(N=NC=C1c2ccccc2N(O)c2ccccc21)c1ccc(Cl)cc1`, the TGI in the test with OVCAR-5 ovarian, with OVCAR-4 ovarian, in the test on K-562 leukemia, in the test on HCT-15 colon, with LOX IMVI melanoma and in the test with A498 renal was over 100 µM in each case. Besides, the TGI in the test with MOLT-4 leukemia and with SK-MEL-5 melanoma was over 100 µM each time.

On to `N#CC(C#N)=Cc1ccc(CP(=O)(O)O)cc1`, for which the TGI with OVCAR-5 ovarian, with OVCAR-4 ovarian, with K-562 leukemia, with HCT-15 colon, in the test on LOX IMVI melanoma and in the test with A498 renal was over 100 µM each time. Also, the TGI in the test on MOLT-4 leukemia and with SK-MEL-5 melanoma was over 100 µM in each case.

Take `CC(C)C(=O)c1c(C(F)(F)F)n([O-])c2cc(F)c(F)cc2[n+]1=O`: the GI50 in the test on OVCAR-5 ovarian was 1.24 µM; with OVCAR-4 ovarian, 0.842 µM; in the test with DU-145 prostate it was 0.592 µM; with HCT-15 colon, 0.147 µM; in the test on A498 renal, 0.13 µM; in the test with MOLT-4 leukemia, 0.0933 µM. For the same compound, the GI50 in the test on SK-MEL-5 melanoma is 0.197 µM. The TGI in the test with OVCAR-5 ovarian came to 2.58 µM; in the test on OVCAR-4 ovarian it was 2.89 µM; in the test on DU-145 prostate it was 1.72 µM; in the test on HCT-15 colon it was 0.309 µM; in the test on A498 renal, 1.33 µM; in the test on SK-MEL-5 melanoma, 0.609 µM.

Take `COC1=CC(c2ccc[nH]2)=N/C1=C\c1[nH]c(C)c(CC(=O)OCc2ccccc2)c1C`: the GI50 with MCF7 breast is 0.397 µM; in the test on OVCAR-5 ovarian, 1.11 µM; in the test with OVCAR-4 ovarian, 0.256 µM; with DU-145 prostate it was 0.324 µM; with HCT-15 colon it was 0.292 µM; in the test on LOX IMVI melanoma it was 0.214 µM. The GI50 in the test with A498 renal is 0.433 µM; in the test on MOLT-4 leukemia, 0.23 µM. The TGI was 2.85 µM with MCF7 breast; 5.38 µM in the test with OVCAR-5 ovarian; 5.17 µM in the test with OVCAR-4 ovarian; 10.9 µM with DU-145 prostate; 1.1 µM with HCT-15 colon; 0.753 µM in the test with LOX IMVI melanoma. The TGI was 2.3 µM in the test with A498 renal and 1.27 µM in the test on MOLT-4 leukemia.

`CCn1c2c(c3ccccc31)[C@@H](c1ccc(Cl)cc1)CC1C(=O)N(c3ccccc3)C(=O)C21` (some centres not stated): the TGI in the test on OVCAR-5 ovarian, in the test on OVCAR-4 ovarian, in the test on K-562 leukemia, in the test on HCT-15 colon, in the test with LOX IMVI melanoma and in the test with A498 renal was over 100 µM throughout. Moreover, the TGI with MOLT-4 leukemia and with SK-MEL-5 melanoma was over 100 µM throughout.

With `Cc1ccc(S(=O)(=O)C2=c3nc4ccccc4cc3=C3C(=O)c4ccccc4C(=O)C32)cc1` (configuration not stated), the TGI with OVCAR-5 ovarian, in the test with OVCAR-4 ovarian, with K-562 leukemia, with HCT-15 colon, in the test on LOX IMVI melanoma and in the test on A498 renal was over 100 µM throughout. For the same compound, the TGI in the test on MOLT-4 leukemia and in the test on SK-MEL-5 melanoma was over 100 µM in each case.

Regarding `NC(=O)c1cccc(OCC(O)CO)c1` (configuration not stated), the TGI in the test with MCF7 breast, in the test with OVCAR-5 ovarian, in the test with OVCAR-4 ovarian, in the test with K-562 leukemia, with DU-145 prostate and in the test on HCT-15 colon was over 100 µM in each case. The TGI in the test with A498 renal, in the test with MOLT-4 leukemia and with SK-MEL-5 melanoma was over 100 µM in each case.

For `O=C(Nc1ccccc1-c1nn(CN2CCNCC2)c(=S)n(CN2CCNCC2)c1=O)C(F)(F)F`, the TGI in the test with OVCAR-5 ovarian was 45 µM; in the test with OVCAR-4 ovarian, 35.2 µM; in the test with K-562 leukemia, 59 µM; with HCT-15 colon, 31.6 µM; in the test on LOX IMVI melanoma, 36.5 µM; with A498 renal, 35.3 µM. For the same compound, the results for the TGI in the test with MOLT-4 leukemia and in the test on SK-MEL-5 melanoma were over 100 µM and 31 µM, respectively.

Turning to `NCCNC(=O)c1cccc2cc3ccccc3nc12`, the TGI with OVCAR-5 ovarian amounted to 14.6 µM; in the test with OVCAR-4 ovarian it was 15.2 µM; with K-562 leukemia it was 6.16 µM; with HCT-15 colon, 15 µM; in the test with LOX IMVI melanoma, 2.76 µM; with A498 renal, 5.88 µM. Also, the TGI in the test with MOLT-4 leukemia was 1.94 µM; in the test with SK-MEL-5 melanoma, over 23.2 µM.

Turning to `C1CN(P2(N3CC3)=NP(N3CC3)(N3CC3)=NP(N3CC3)(N3CC3)=N2)CCO1` (configuration not stated), the TGI in the test on OVCAR-5 ovarian, in the test on OVCAR-4 ovarian, in the test with K-562 leukemia, in the test on HCT-15 colon, in the test on LOX IMVI melanoma and with A498 renal was over 100 µM throughout. The TGI in the test on MOLT-4 leukemia and in the test with SK-MEL-5 melanoma was over 100 µM in each case.

Turning to `CC1(C)C2CCC1C(=O)[C@@]1(C=CC(=O)CC1)C2` (some centres not stated), the TGI in the test on MCF7 breast, with OVCAR-5 ovarian, in the test on OVCAR-4 ovarian, in the test with K-562 leukemia, with DU-145 prostate and with HCT-15 colon was over 100 µM throughout. For the same compound, the TGI in the test with LOX IMVI melanoma, in the test on MOLT-4 leukemia and in the test with SK-MEL-5 melanoma was over 100 µM each time.

With `N#C/C(=N\Nc1ccccc1)C(=O)Nc1cc(-c2ccccc2)nn1-c1ccccc1`, the GI50 with MCF7 breast is 2.46 µM; with OVCAR-5 ovarian it was 3.39 µM; in the test with OVCAR-4 ovarian, 2.01 µM; in the test with K-562 leukemia, 2.43 µM; in the test on DU-145 prostate, 4.08 µM; with HCT-15 colon, 2.98 µM. Besides, the GI50 with MOLT-4 leukemia is 3.75 µM; with SK-MEL-5 melanoma, 1.54 µM. Also, the TGI in the test with MCF7 breast was over 100 µM; with OVCAR-5 ovarian, over 100 µM; in the test with OVCAR-4 ovarian it was 8.95 µM; with K-562 leukemia it was over 100 µM; in the test with DU-145 prostate, over 100 µM; with HCT-15 colon, over 100 µM. Besides, the TGI was over 100 µM in the test on MOLT-4 leukemia and 4.86 µM in the test with SK-MEL-5 melanoma.

Turning to `OC12c3ccccc3C1CCCCCCCCCC21OCCO1` (configuration not stated), the TGI with OVCAR-5 ovarian, in the test on OVCAR-4 ovarian, with K-562 leukemia, in the test with HCT-15 colon, in the test with LOX IMVI melanoma and in the test on A498 renal was over 100 µM each time. Also, the TGI with MOLT-4 leukemia and in the test with SK-MEL-5 melanoma was over 100 µM in each case.
